As a reminder, the solubility is the dissolved amount per volume that the medium holds.

One data set addresses metal-free Aβ40/Aβ42 (Homo sapiens, UniProt P05067). Set-up: method as in PMID 26575890. The note with it: cited from earlier work.
A further data set in a line: Solubility. The settings on record: water; HCl salt. Type of data set: physicochemical.

Where a name gives a salt, the structure may show the parent alone.

Sequence of metal-free Aβ40/Aβ42 (P05067 672-711 limits assumed): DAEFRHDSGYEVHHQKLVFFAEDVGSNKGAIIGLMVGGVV

Take `CN(C)c1ccc(N)cc1` [DMPD, N,N-dimethyl-p-phenylenediamine]: the “Interaction with Aβ and redirection of self-assembly” value on metal-free Aβ40/Aβ42 was “interact with both metal-free Aβ and metal–Aβ and redirect their self-assembly routes to form off-pathway aggregates”.

Regarding `Nc1ccc(NCc2ccccn2)cc1` [HCl salt of 1, N^1-(pyridin-2-ylmethyl)benzene-1,4-diamine], the solubility in “Solubility” is approximately 800 mg/mL.

The values above are taken from article PMC5065625, “Structure-mechanism-based engineering of chemical regulators targeting distinct pathological factors in Alzheimer's disease” (Nature Communications, 2016).
